Data set [1] deals with CYP enzymes, OCT1/OCT2, MATE 1, glucuronidation. To be noted: cited from earlier work.
The format of data set [2] is in vivo, healthy volunteers. The following applies: for change in exposures: with any of the coadministered medications, apart from stated exceptions.
The format of data set [3] is in vivo, healthy volunteers. To be noted: for Tmax: both, human, plasma, oral; for AUC from time zero to time t (AUCt) decrease: data not shown.
For data set [4] the following is noted: coadministered with the 3D regimen; cited from earlier work.
For data set [5] the following is noted: coadministration with ritonavir; cited from earlier work.
Data set [6] can be described thus: Safety and tolerability assessments in the phase I studies. Type of data set: in vivo, healthy subjects. To be noted: carisoprodol arm.
[7] abbreviates: in the presence of the 3D regimen.
[8] abbreviates: alone and with the 3D regimen (not affected / similar).
[9] abbreviates: upon coadministration with the 3D regimen.
Setting [10] is: coadministration with the 3D regimen.

Where “and” joins values, the source holds several entries; their conditions need not be identical. Identical values can stand only once. Like-named read-outs stand apart in the source and are kept apart here. Bounds are passed on as bounds.

For the compound `CC(=O)Nc1ccc(O)cc1` [Acetaminophen], the Metabolic pathway entry in data set [1] is recorded as “Glucuronidation”.

One may read the Tmax as the time at which the peak concentration occurs. As to `Cc1cnc(C(=O)N[C@H]2CCCCC/C=C\[C@@H]3C[C@@]3(C(=O)NS(=O)(=O)C3CC3)NC(=O)[C@@H]3C[C@@H](Oc4nc5ccccc5c5ccccc45)CN3C2=O)cn1` [Paritaprevir], in data set [2] (both, human, plasma, oral, median tmax, in the presence of metformin), the time of peak concentration (Tmax) stood at 5.5 h. In data set [2] (in the presence of SMZ/TMP), the Cmax decrease is given as 22% and the “change in (other) exposure parameters” value is less than 20%. Further, in data set [2], the change in exposures is recorded as no more than 25%. In data set [2] (with metformin), this compound gave a Cmax decrease of 37% and a Ctrough increase of 22%.

Regarding `O=C1CN=C(c2ccccc2)c2cc(Cl)ccc2N1` [Nordiazepam], the time to peak (Tmax) stood at 48 h in data set [3] and 96 h in data set [3] (2 mg). In addition, in data set [3] (setting [7]), the Cmax increase is 10% and < 20%. In addition, the “proportion of AUC extrapolated after the last measurable timepoint” value (from here on “proportion of AUC extrapolated”) was 20% in data set [3] (with the 3D regimen) and 46% in data set [3] (without the 3D regimen). For the same compound, the “AUC from time zero to time t (AUCt) decrease” value in data set [3] (with the 3D regimen) was found to be 3%.

Consider `CCCC(C)(COC(N)=O)COC(N)=O` [Meprobamate], for which the time to peak (Tmax) in data set [3] was in the range of 3 to 4 h. For the same compound, in data set [3] (setting [7]), the “AUC change (increase or decrease)” value is less than 20% and the “Cmax change (increase or decrease)” value is given as less than 20%.

On to `COc1ccc2[nH]c([S+]([O-])Cc3ncc(C)c(OC)c3C)nc2c1` (stereo not shown) [omeprazole], for which, in data set [4], the exposures decrease is ~ 40%.

Take `COc1c(-c2ccc3cc(NS(C)(=O)=O)ccc3c2)cc(-n2ccc(=O)[nH]c2=O)cc1C(C)(C)C` [Dasabuvir]: in data set [2] (in the presence of SMZ/TMP), the AUC increase was 33%, the “change in (other) exposure parameters” value is on record as less than 20% and the exposures increase was no more than 33%. Besides, the change in exposures in data set [2] is reported as no more than 25%.

As to `CN(C)CCC=C1c2ccccc2C=Cc2ccccc21` [Cyclobenzaprine], the median tmax in data set [3] (setting [8]) is 5.0 h. Besides, the Cmax decrease in data set [3] (setting [7]) is 32%. Further, the AUC decrease in data set [3] (setting [7]) was 40%. In addition, the exposures decrease result in data set [3] (setting [9]) is “up to 46%”; in data set [3] (upon coadministration with the 3D regimen, listed as cyclobenzaprine) it was no more than 40%. Besides, the Metabolic pathway result in data set [1] was “CYP3A4, 1A2, and 2D6 substrate”.

On to `COC(=O)N[C@H](C(=O)N1CCC[C@H]1C(=O)Nc1ccc([C@@H]2CC[C@@H](c3ccc(NC(=O)[C@@H]4CCCN4C(=O)[C@@H](NC(=O)OC)C(C)C)cc3)N2c2ccc(C(C)(C)C)cc2)cc1)C(C)C` [Ombitasvir], for which, in data set [2] (in the presence of SMZ/TMP), the “change in (other) exposure parameters” value was less than 20%. For the same compound, the change in exposures in data set [2] was no more than 25%.

With `COc1c(-c2ccc3cc(NS(C)(=O)=O)ccc3c2)cc(-n2ccc(=O)[nH]c2=O)cc1C(C)(C)CO` [dasabuvir M1], in data set [2] (in the presence of SMZ/TMP, data not shown), the exposures decrease is no more than 19%.

On to `CNCCC=C1c2ccccc2C=Cc2ccccc21` [Norcyclobenzaprine], for which, in data set [3] (setting [10]), the “harmonic mean t½” value worked out at 53 h and the median tmax is reported as 24 h. Also, in data set [3] (setting [7]), the “Cmax change (increase or decrease)” value is less than 20% and the AUC decrease was determined as 26%. Further, in data set [3] (medication alone), the “harmonic mean t½” value is 86 h and the median tmax was 36 h. In data set [3] (with the 3D regimen), the “proportion of AUC extrapolated” value is on record as 21% and the “AUC from time zero to time t (AUCt) decrease” value came out at 7%. In addition, in data set [3] (without the 3D regimen), the “proportion of AUC extrapolated” value is on record as 42%.

In data set [3] (setting [8]), `CN(C)C(=N)N=C(N)N` [Metformin] displayed a median tmax of 4.0 h. In addition, in data set [3] (setting [7]), the Cmax decrease came out at 23%; the AUC decrease was < 20% and 10%. Further, the Metabolic pathway result in data set [1] is “OCT1/OCT2 substrate”.

On to `COc1cc(Cc2cnc(N)nc2N)cc(OC)c1OC` [Trimethoprim], for which, in data set [3] (setting [7]), the AUC increase was found to be 22% and the Ctrough increase was 25%. Moreover, in data set [3] (setting [9]), the “changes in exposures (Cmax and AUC geometric mean ratios)” value was no more than 25%; the exposures increase is no more than 20%. Besides, in data set [5], the “increase in AUC” value was 20%. Also, the Metabolic pathway result in data set [1] is on record as “Weak to moderate CYP2C8 inhibitor; weak OCT2 inhibitor; MATE 1 inhibitor”.

As for `CC(C)c1nc(CN(C)C(=O)N[C@H](C(=O)N[C@@H](Cc2ccccc2)C[C@H](O)[C@H](Cc2ccccc2)NC(=O)OCc2cncs2)C(C)C)cs1` [Ritonavir], the “change in (other) exposure parameters” value in data set [2] (in the presence of SMZ/TMP) is recorded as less than 20%. The change in exposures in data set [2] was no more than 25%.

For `COc1ccc2c3c1O[C@H]1C(=O)CC[C@H]4[C@@H](C2)N(C)CC[C@]314` [Hydrocodone], in data set [3], the Tmax amounted to 2 h. Moreover, in data set [3] (setting [7]), the AUC increase is 90% and the Cmax increase is 27%.

For the compound `CCCC(C)(COC(N)=O)COC(=O)NC(C)C` (stereo not shown) [Carisoprodol], the Tmax in data set [3] came out at 2 h. Also, in data set [3] (setting [7]), the Cmax decrease turned out to be 46%. For the same compound, in data set [3] (setting [9]), the exposures decrease was no more than 46%. Besides, the subjects reporting somnolence result in data set [6] is “five”.
